Laboratory results as given in ChEMBL document CHEMBL1201862, “PubChem BioAssay data set” (2004).
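A five-concentration, 48-hour dose response in 96-well plates underlies each endpoint, interpolated linearly between surrounding concentrations. Abbreviation: GI50, concentration required for 50% inhibition of growth.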 Active and inactive are the calls of the source. Rule as the data show it: active = GI50 up to about 1.1 µM and inactive = higher.

Experiments:
Experiment in all cases: NCI-60 cell line screen, 48 h
[1] = system: HT-29
[2] = system: XF498
[3] = system: 786-0
[4] = system: M19-MEL
[5] = system: SK-MEL-2
[6] = system: OVCAR-5
[7] = system: HOP-18
[8] = system: SNB-78
[9] = system: UO-31
[10] = system: UACC-62
[11] = system: IGROV-1
[12] = system: NCI-H460
[13] = system: M14
[14] = system: TK-10
[15] = system: DMS-114
[16] = system: LOX IMVI
[17] = system: HCT-15
[18] = system: RXF 393
[19] = system: SK-MEL-5
[20] = system: HOP-92
[21] = system: DMS-273
[22] = system: SW-620
[23] = system: MOLT-4
[24] = system: HOP-62
[25] = system: OVCAR-8
[26] = system: KM12
[27] = system: OVCAR-4
[28] = system: NCI-H226
[29] = system: SK-OV-3
[30] = system: SNB-19
[31] = system: OVCAR-3
[32] = system: SF-295
[33] = system: K562
[34] = system: LXFL 529
[35] = system: DLD-1
[36] = system: RXF 631
[37] = system: SNB-75
[38] = system: CAKI-1
[39] = system: Malme-3M
[40] = system: SK-MEL-28
[41] = system: HCC 2998
[42] = system: CCRF-CEM
[43] = system: ACHN
[44] = system: SN12C
[45] = system: U-251
[46] = system: A549
[47] = system: KM-20L2
[48] = system: UACC-257
[49] = system: HCT-116
[50] = system: COLO 205
[51] = system: HL-60
[52] = system: EKVX
[53] = system: RPMI-8226
[54] = system: T47D
[55] = system: Hs-578T
[56] = system: NCI-H522
[57] = system: BT-549
[58] = system: MDA-N
[59] = system: DU-145
[60] = system: SF-539
[61] = system: SF-268
[62] = system: MDA-MB-231
[63] = system: A498
[64] = system: MDA-MB-435
[65] = system: SR
[66] = system: PC-3
[67] = system: NCI-H23
[68] = system: MCF7
[69] = system: NCI/ADR-RES

For `Cc1ccc(C(=O)NCCN(C)C)c2nc3ccccc3cc12`, the GI50 [1] was 0.462 µM (active), the GI50 [2] was 1.38 µM (inactive) and the GI50 [3] was 2.32 µM (inactive). The GI50 [4] was 2.31 µM (inactive), the GI50 [5] was 2.53 µM (inactive) and the GI50 [6] was 1.94 µM (inactive). The GI50 [7] was 1.92 µM (inactive), the GI50 [8] was 13.2 µM (inactive) and the GI50 [9] was 2.49 µM (inactive). The GI50 [10] was 2.47 µM (inactive), the GI50 [11] was 6.58 µM (inactive) and the GI50 [12] was 0.34 µM (active). The GI50 [13] was 2.69 µM (inactive), the GI50 [14] was 1.54 µM (inactive) and the GI50 [15] was 2.78 µM (inactive). For the same compound, the GI50 [16] was 0.561 µM (active), the GI50 [17] was 0.644 µM and the GI50 [18] was 1.29 µM (inactive). For the same compound, the GI50 [19] was 1.52 µM (inactive), the GI50 [20] was 14 µM (inactive) and the GI50 [21] was 0.467 µM (active). For the same compound, the GI50 [22] was 0.445 µM (active), the GI50 [23] was 0.608 µM (active) and the GI50 [24] was 8.24 µM (inactive). For the same compound, the GI50 [25] was 0.622 µM (active), the GI50 [26] was 1.1 µM (active) and the GI50 [27] was 3.74 µM (inactive). The GI50 [28] was 1.15 µM (inactive), the GI50 [29] was 30.3 µM (inactive) and the GI50 [30] was 2.36 µM (inactive). The GI50 [31] was 1.32 µM (inactive), the GI50 [32] was 1.07 µM (active) and the GI50 [33] was 1.4 µM (inactive). The GI50 [34] was 2.15 µM (inactive), the GI50 [35] was 1.32 µM (inactive) and the GI50 [36] was 0.817 µM (active). The GI50 [37] was 1.52 µM (inactive), the GI50 [38] was 1.79 µM (inactive) and the GI50 [39] was 2.54 µM (inactive). For the same compound, the GI50 [40] was 1.95 µM (inactive), the GI50 [41] was 2.56 µM (inactive) and the GI50 [42] was 1.54 µM (inactive). For the same compound, the GI50 [43] was 0.45 µM (active), the GI50 [44] was 0.809 µM (active) and the GI50 [45] was 0.644 µM (active). For the same compound, the GI50 [46] was 0.92 µM (active), the GI50 [47] was 0.661 µM (active) and the GI50 [48] was 1.3 µM (inactive). For the same compound, the GI50 [49] was 0.468 µM (active), the GI50 [50] was 1.57 µM (inactive) and the GI50 [51] was 1.42 µM (inactive). The GI50 [52] was 1.73 µM (inactive) and the GI50 [53] was 4.24 µM (inactive).
In the case of `O=[N+]([O-])c1cc(C(F)(F)F)cc2n[se]nc12`, the GI50 [1] is reported as 7.29 µM (inactive), the GI50 [54] is reported as 3.17 µM (inactive) and the GI50 [2] is reported as 2.39 µM (inactive). For the same compound, the GI50 [3] was 2.21 µM (inactive), the GI50 [4] was 3.33 µM (inactive) and the GI50 [5] was 8.38 µM (inactive). The GI50 [6] was 13.1 µM (inactive), the GI50 [7] was 3.14 µM (inactive) and the GI50 [55] was 19.3 µM (inactive). The GI50 [8] was 12.3 µM (inactive), the GI50 [56] was 3.13 µM (inactive) and the GI50 [57] was 2.81 µM (inactive). The GI50 [9] was 5.53 µM (inactive), the GI50 [10] was 4.15 µM (inactive) and the GI50 [11] was 5.07 µM (inactive). The GI50 [12] was 6.22 µM (inactive), the GI50 [13] was 1.71 µM (inactive) and the GI50 [14] was 4.5 µM (inactive). The GI50 [58] was 1.91 µM (inactive), the GI50 [15] was 2.36 µM (inactive) and the GI50 [59] was 3.21 µM (inactive). For the same compound, the GI50 [60] was 3.89 µM (inactive), the GI50 [16] was 5.53 µM (inactive) and the GI50 [61] was 5 µM (inactive). The GI50 [17] was 2.28 µM, the GI50 [18] was 2.3 µM (inactive) and the GI50 [19] was 3.24 µM (inactive). The GI50 [20] was 2.26 µM (inactive), the GI50 [21] was 13.2 µM (inactive) and the GI50 [62] was 2.13 µM (inactive). For the same compound, the GI50 [22] was 1.45 µM (inactive), the GI50 [23] was 1.48 µM (inactive) and the GI50 [24] was 15.7 µM (inactive). For the same compound, the GI50 [25] was 1.97 µM (inactive), the GI50 [63] was 16.8 µM (inactive) and the GI50 [64] was 2.33 µM (inactive). For the same compound, the GI50 [26] was 9.33 µM (inactive), the GI50 [27] was 1.97 µM (inactive) and the GI50 [28] was 20.6 µM (inactive). For the same compound, the GI50 [65] was 1.36 µM (inactive), the GI50 [29] was 13.6 µM (inactive) and the GI50 [30] was 15.5 µM (inactive). For the same compound, the GI50 [31] was 1.67 µM (inactive), the GI50 [32] was 12.5 µM (inactive) and the GI50 [33] was 0.822 µM (active). For the same compound, the GI50 [34] was 1.72 µM (inactive), the GI50 [35] was 3.18 µM (inactive) and the GI50 [36] was 11 µM (inactive). For the same compound, the GI50 [37] was 7.64 µM (inactive), the GI50 [38] was 4.6 µM (inactive) and the GI50 [39] was 1.79 µM (inactive). The GI50 [66] was 4 µM (inactive), the GI50 [67] was 3.93 µM (inactive) and the GI50 [40] was 2.22 µM (inactive). The GI50 [41] was 3.98 µM (inactive), the GI50 [42] was 1.68 µM (inactive) and the GI50 [68] was 1.97 µM (inactive). The GI50 [43] was 2.65 µM (inactive), the GI50 [69] was 2.12 µM (inactive) and the GI50 [44] was 4.88 µM (inactive). The GI50 [45] was 15.1 µM (inactive), the GI50 [46] was 11.4 µM (inactive) and the GI50 [47] was 6.81 µM (inactive). The GI50 [48] was 2.16 µM (inactive), the GI50 [49] was 1.75 µM (inactive) and the GI50 [50] was 2.03 µM (inactive). The GI50 [51] was 0.429 µM (active), the GI50 [52] was 5.3 µM (inactive) and the GI50 [53] was 1.21 µM (inactive).
In the case of `C[n+]1c2ccccc2c(NC(CS)C(=O)O)c2ccccc21` (stereo not drawn), the GI50 [1] is reported as 28.9 µM (inactive), the GI50 [2] is reported as 18.4 µM (inactive) and the GI50 [3] is reported as 24 µM (inactive). The GI50 [4] was 27.4 µM (inactive), the GI50 [5] was 28.2 µM (inactive) and the GI50 [6] was 74.1 µM (inactive). For the same compound, the GI50 [7] was 12 µM (inactive), the GI50 [8] was 45.2 µM (inactive) and the GI50 [56] was 20.3 µM (inactive). For the same compound, the GI50 [9] was 16.2 µM (inactive), the GI50 [10] was 15.2 µM (inactive) and the GI50 [11] was 25.4 µM (inactive). The GI50 [12] was 29.8 µM (inactive), the GI50 [13] was 27.5 µM (inactive) and the GI50 [14] was 36.6 µM (inactive). The GI50 [15] was 29.2 µM (inactive), the GI50 [60] was 20.7 µM (inactive) and the GI50 [61] was 19.8 µM (inactive). The GI50 [17] was 28.1 µM, the GI50 [18] was 22.3 µM (inactive) and the GI50 [19] was 17.3 µM (inactive). For the same compound, the GI50 [20] was 20.2 µM (inactive), the GI50 [21] was 22.1 µM (inactive) and the GI50 [22] was 39.3 µM (inactive). The GI50 [23] was 13.8 µM (inactive), the GI50 [24] was 30.3 µM (inactive) and the GI50 [25] was 19.4 µM (inactive). The GI50 [63] was 15.6 µM (inactive), the GI50 [26] was 18.6 µM (inactive) and the GI50 [27] was 29.8 µM (inactive). The GI50 [28] was 45 µM (inactive), the GI50 [65] was 16.4 µM (inactive) and the GI50 [29] was 23.3 µM (inactive). The GI50 [30] was 40.6 µM (inactive), the GI50 [31] was 17.7 µM (inactive) and the GI50 [32] was 19.9 µM (inactive). For the same compound, the GI50 [33] was 28.6 µM (inactive), the GI50 [34] was 20.4 µM (inactive) and the GI50 [35] was 23.1 µM (inactive). For the same compound, the GI50 [36] was 37.2 µM (inactive), the GI50 [37] was 24.2 µM (inactive) and the GI50 [38] was 28.5 µM (inactive). The GI50 [39] was 24.2 µM (inactive), the GI50 [67] was 32 µM (inactive) and the GI50 [41] was 32.9 µM (inactive). For the same compound, the GI50 [43] was 36.5 µM (inactive), the GI50 [44] was 52 µM (inactive) and the GI50 [45] was 24.5 µM (inactive). The GI50 [46] was 22.6 µM (inactive), the GI50 [47] was 29.4 µM (inactive) and the GI50 [48] was 33.7 µM (inactive). The GI50 [49] was 13.5 µM (inactive), the GI50 [50] was 30.1 µM (inactive) and the GI50 [51] was 17.6 µM (inactive). For the same compound, the GI50 [52] was 24.4 µM (inactive) and the GI50 [53] was 18.6 µM (inactive).
